We go through 17 compounds from US20260078130A1, “NAMPT MODULATORS, PREPARATIONS, AND USES THEREOF” (SIRONAX LTD., priority 2022, published 2026).

Experiment [1] concerns the target T1, human enzyme NAMPT (full length) (Homo sapiens, UniProt P43490).
T1 construct: human enzyme NAMPT (full length)
As to the kind of experiment: NMN fluorescence biochemical assay (stimulation of NMN synthesis by NAMPT). To be noted: for EC50: concentration giving half-maximal activation, read-out: Enzymatic EC50; for Enzymatic Emax: fold change of maximal activation compared to DMSO. In short, it runs like this:
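Full-length human NAMPT (100 nM) was preincubated 15 min at 37 °C with compound in 50 mM Tris-HCl pH 7.5, 10 mM MgCl2, 2 mM DTT, then reacted 1 h at 37 °C with 50 μM NAM, 100 μM PRPP, 4 mM ATP (stated solution concentrations). NMN was derivatised with acetophenone/KOH then formic acid and read at Ex/Em 382/445 nm; EC50 and Emax (fold over DMSO) reported.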

Experiment [2] concerns endogenous NAMPT in U2OS cells. Kind of experiment: Cellular NAD+ modulation assay (NAD/NADH-Glo, U2OS cells). To be noted: Homo sapiens; for maximal fold induction: read-out: Cellular Emax. It is filed as cell-based. In short, it runs like this:
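NAD/NADH-Glo luminescence quantified NAD+ after acid treatment (60 °C, 15 min) and neutralization of DTAB lysates. Beforehand, U2OS cells seeded 16 h earlier received compound concentration series for 24 h at 37 °C. Values given as half-maximal activation concentration (EC50) and maximal fold change versus DMSO (Emax).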

Where [3] appears, read: NMN synthesis by purified human NAMPT (100 nM).
[4] abbreviates: 24 hours incubation with compound.
Setting [5] is: NMN fluorescence assay, purified human NAMPT 100 nM.
Setting [6] is: 24 hours incubation, cellular NAD+.

Where two headings read alike, the source gives them in different places.

T1 sequence (P43490 whole entry): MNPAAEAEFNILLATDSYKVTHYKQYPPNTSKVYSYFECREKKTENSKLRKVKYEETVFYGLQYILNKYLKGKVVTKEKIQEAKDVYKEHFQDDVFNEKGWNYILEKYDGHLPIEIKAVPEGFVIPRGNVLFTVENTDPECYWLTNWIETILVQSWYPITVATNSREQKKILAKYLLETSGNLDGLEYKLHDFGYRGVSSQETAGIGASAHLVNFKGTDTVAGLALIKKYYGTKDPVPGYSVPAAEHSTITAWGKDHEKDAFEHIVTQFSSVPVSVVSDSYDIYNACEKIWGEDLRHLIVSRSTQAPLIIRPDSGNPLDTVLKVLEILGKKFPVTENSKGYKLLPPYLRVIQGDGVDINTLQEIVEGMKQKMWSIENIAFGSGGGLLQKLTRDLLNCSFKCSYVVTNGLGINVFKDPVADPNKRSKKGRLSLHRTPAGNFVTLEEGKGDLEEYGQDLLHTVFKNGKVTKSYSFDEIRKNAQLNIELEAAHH

One may read the EC50 as the concentration needed to bring the measured effect to its halfway point. `Cn1ncc(C#N)c1CC1c2ccccc2C(=O)N1Cc1ccc2[nH]nnc2c1` (centres unmarked) [Compound 317, 5-((2-((1H-benzo[d][1,2,3]triazol-5-yl)methyl)-3-oxoisoindolin-1-yl)methyl)-1-methyl-1H-pyrazole-4-carbonitrile]: the EC50 in experiment [1] (setting [3]) is less than 500 nM. In addition, the “Enzymatic Emax” value in experiment [1] is “C (2≥C)”. Further, in experiment [2] (setting [4]), the EC50 is less than 500 nM and the maximal fold induction fell in the range of 1.2 to 1.5.

Consider `O=C1c2c(Br)cccc2CN1Cc1ccc(O)cc1` [Compound 29, 7-bromo-2-(4-hydroxybenzyl)isoindolin-1-one], for which the EC50 in experiment [1] (setting [3]) fell in the range of 500 to 5000 nM. For the same compound, in experiment [1], the “Enzymatic Emax” value is listed as “A (A>3)”. In experiment [2] (setting [4]), the EC50 fell in the range of 5000 to 50000 nM and the maximal fold induction is more than 1.5.

For `Cn1ncc(Cl)c1CC1c2c(F)cccc2C(=O)N1Cc1ccc2[nH]nnc2c1` (centres unmarked) [Compound 338, 2-((1H-benzo[d][1,2,3]triazol-5-yl)methyl)-3-((4-chloro-1-methyl-1H-pyrazol-5-yl)methyl)-4-fluoroisoindolin-1-one], the EC50 in experiment [1] (setting [5]) and in experiment [2] (setting [6]) was less than 500 nM throughout. Moreover, in experiment [1], the “Enzymatic Emax” value is “A (A>3)”. For the same compound, in experiment [2] (setting [6]), the maximal fold induction is more than 1.5.

As for `CC1c2ccccc2C(=O)N1Cc1ccc(NC(=O)NCc2cn[nH]c2)cc1` (centres unmarked) [Compound 292, 1-((1H-pyrazol-4-yl)methyl)-3-(4-((1-methyl-3-oxoisoindolin-2-yl)methyl)phenyl)urea], in experiment [1] (setting [3]), the concentration giving a half-maximal response (EC50) is less than 500 nM. Further, in experiment [1], the “Enzymatic Emax” value was “C (2≥C)”. Moreover, in experiment [2] (setting [4]), the EC50 is less than 500 nM and the maximal fold induction was not above 1.2.

In the case of `COc1ccc(CN2C(=O)c3c(F)cc(Cl)cc3C2Cc2c(C)ccnc2C#N)cn1` (centres unmarked) [Compound 596, 3-((6-chloro-4-fluoro-2-((6-methoxypyridin-3-yl)methyl)-3-oxoisoindolin-1-yl)methyl)-4-methylpicolinonitrile], the EC50 in experiment [1] (setting [5]) and in experiment [2] (setting [6]) was 500 to 5000 nM in each case. Further, the “Enzymatic Emax” value in experiment [1] is reported as “B (3≥B>2)”. Moreover, the maximal fold induction in experiment [2] (setting [6]) was more than 1.5.

On to `O=C1c2ccccc2C(=O)N1Cc1ccc(O)cc1` [Compound 11, 2-(4-hydroxybenzyl)isoindoline-1,3-dione], for which the EC50 in experiment [1] (setting [3]) is not below 5000 nM; in experiment [2] (setting [4]), 5000 to 50000 nM. The “Enzymatic Emax” value in experiment [1] was “B (3≥B>2)”. In addition, the maximal fold induction in experiment [2] (setting [4]) lay within 1.2 to 1.5.

As to `O=c1[nH]c2ccc(Cn3c(=O)c4ccccc4n3Cc3ccccc3C(F)(F)F)cc2o1` [Compound 141, 6-((3-oxo-1-(2-(trifluoromethyl)benzyl)-1,3-dihydro-2H-indazol-2-yl)methyl)benzo[d]oxazol-2(3H)-one], the EC50 in experiment [1] (setting [3]) lay in the range of 500 to 5000 nM. Besides, the “Enzymatic Emax” value in experiment [1] is listed as “B (3≥B>2)”. Moreover, in experiment [2] (setting [4]), the EC50 lay within 500 to 5000 nM and the maximal fold induction was more than 1.5.

Turning to `Cn1ncc(Cl)c1CC1c2cccc(F)c2C(=O)N1Cc1ccc2[nH]nnc2c1` (centres unmarked) [Compound 342, 2-((1H-benzo[d][1,2,3]triazol-5-yl)methyl)-3-((4-chloro-1-methyl-1H-pyrazol-5-yl)methyl)-7-fluoroisoindolin-1-one], in experiment [1] (setting [5]), the EC50 is less than 500 nM. For the same compound, the “Enzymatic Emax” value in experiment [1] is “A (A>3)”. In experiment [2] (setting [6]), the EC50 was less than 500 nM and the maximal fold induction was more than 1.5.

For `Cn1ncc(Cl)c1CC1c2ccccc2C(=O)N1CC1CC2(CNC(=O)N2)C1` (centres unmarked) [Compound 611, 3-((4-chloro-1-methyl-1H-pyrazol-5-yl)methyl)-2-((6-oxo-5,7-diazaspiro[3.4]octan-2-yl)methyl)isoindolin-1-one], the EC50 in experiment [1] (setting [5]) is not below 5000 nM. The “Enzymatic Emax” value in experiment [1] is recorded as “C (2≥C)”. In addition, in experiment [2] (setting [6]), the EC50 lay within 5000 to 50000 nM and the maximal fold induction was in the range of 1.2 to 1.5.

With `Cc1ncnc(C#N)c1CC1c2ccccc2C(=O)N1CC1CC2(CNC(=O)O2)C1` (centres unmarked) [Compound 491, 6-methyl-5-((3-oxo-2-((6-oxo-5-oxa-7-azaspiro[3.4]octan-2-yl)methyl)isoindolin-1-yl)methyl)pyrimidine-4-carbonitrile], the EC50 in experiment [1] (setting [5]) is 500 to 5000 nM. The “Enzymatic Emax” value in experiment [1] is “B (3≥B>2)”. Also, in experiment [2] (setting [6]), the EC50 is less than 500 nM and the maximal fold induction is more than 1.5.

Consider `Cn1ncc(Cl)c1CC1c2cc(C3CN(C(=O)OC(C)(C)C)C3)ccc2C(=O)N1CC1CC2(CNC(=O)O2)C1` (centres unmarked) [Compound 514, tert-butyl 3-(3-((4-chloro-1-methyl-1H-pyrazol-5-yl)methyl)-1-oxo-2-((6-oxo-5-oxa-7-azaspiro[3.4]octan-2-yl)methyl)isoindolin-5-yl)azetidine-1-carboxylate], for which, in experiment [1] (setting [5]), the EC50 was 500 to 5000 nM. In experiment [1], the “Enzymatic Emax” value is given as “A (A>3)”. Besides, in experiment [2] (setting [6]), the EC50 was in the range of 500 to 5000 nM and the maximal fold induction was more than 1.5.

As to `O=C1c2ccccc2C(Cc2nn(C3CC4(COC4)C3)cc2Cl)N1Cc1ccc2[nH]nnc2c1` (centres unmarked) [Compound 412, 2-((1H-benzo[d][1,2,3]triazol-5-yl)methyl)-3-((4-chloro-1-(2-oxaspiro[3.3]heptan-6-yl)-1H-pyrazol-3-yl)methyl)isoindolin-1-one], the EC50 in experiment [1] (setting [5]) was less than 500 nM. The “Enzymatic Emax” value in experiment [1] is given as “B (3≥B>2)”. For the same compound, in experiment [2] (setting [6]), the half-maximal effective concentration (EC50) lay within 5000 to 50000 nM and the maximal fold induction was 1.2 to 1.5.

For the compound `N#Cc1cncc(Cl)c1CC1c2ccccc2C(=O)N1Cc1ccc2[nH]nnc2c1` (centres unmarked) [Compound 278, 4-((2-((1H-benzo[d][1,2,3]triazol-5-yl)methyl)-3-oxoisoindolin-1-yl)methyl)-5-chloronicotinonitrile], the EC50 in experiment [1] (setting [3]) was less than 500 nM. Also, the “Enzymatic Emax” value in experiment [1] was “A (A>3)”. Also, in experiment [2] (setting [4]), the concentration giving a half-maximal response (EC50) was less than 500 nM and the maximal fold induction was more than 1.5.

Consider `Cn1ncc(Cl)c1CC1c2ccccc2C(=O)N1Cc1ccc2c(c1)nnn2C` (centres unmarked) [Compound 557, 3-((4-chloro-1-methyl-1H-pyrazol-5-yl)methyl)-2-((1-methyl-1H-benzo[d][1,2,3]triazol-5-yl)methyl)isoindolin-1-one], for which the EC50 in experiment [1] (setting [5]) lay within 500 to 5000 nM. Moreover, the “Enzymatic Emax” value in experiment [1] is recorded as “A (A>3)”. In experiment [2] (setting [6]), the EC50 was less than 500 nM and the maximal fold induction is more than 1.5.

Turning to `CN1CCn2c(cc(Cl)c2CC2c3ccccc3C(=O)N2CC2CC3(CNC(=O)O3)C2)C1` (centres unmarked) [Compound 484, 2-((1-((7-chloro-2-methyl-1,2,3,4-tetrahydropyrrolo[1,2-a]pyrazin-6-yl)methyl)-3-oxoisoindolin-2-yl)methyl)-5-oxa-7-azaspiro[3.4]octan-6-one], the EC50 in experiment [1] (setting [5]) was 500 to 5000 nM; in experiment [2] (setting [6]), less than 500 nM. Besides, the “Enzymatic Emax” value in experiment [1] is given as “B (3≥B>2)”. In experiment [2] (setting [6]), the maximal fold induction was in the range of 1.2 to 1.5.

`O=C1c2ccccc2C(Cc2ncccc2Br)N1CC#Cc1cn[nH]n1` (centres unmarked) [Compound 417, 2-(3-(2H-1,2,3-triazol-4-yl)prop-2-yn-1-yl)-3-((3-bromopyridin-2-yl)methyl) isoindolin-1-one]: the EC50 in experiment [1] (setting [5]) was less than 500 nM. For the same compound, in experiment [1], the “Enzymatic Emax” value is on record as “B (3≥B>2)”. For the same compound, in experiment [2] (setting [6]), the concentration giving a half-maximal response (EC50) was less than 500 nM and the maximal fold induction is more than 1.5.

In the case of `Cc1ccnc(CC2c3ccccc3C(=O)N2Cc2ccc3[nH]c(=O)oc3c2)c1` (centres unmarked) [Compound 156, 6-((1-((4-methylpyridin-2-yl)methyl)-3-oxoisoindolin-2-yl)methyl)benzo[d]oxazol-2(3H)-one], the EC50 is not below 5000 nM in experiment [1] (setting [3]) and 500 to 5000 nM in experiment [2] (setting [4]). Besides, the “Enzymatic Emax” value in experiment [1] was “A (A>3)”. The maximal fold induction in experiment [2] (setting [4]) is more than 1.5.
